Read-outs that look alike come from different tables or passages of the source.
Assays:
Test in all cases: Glasshouse assay for herbicidal activity (pre- and post-emergence), percentage phytotoxicity
Format in all cases: in vivo
[1] = tested on: Echinochloa crus-galli (ECHCG); conditions: for pest or weed control at 250 g/ha: Echinochloa crus-galli
In short: (§1)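 Potted test plants in standard soil received the compound pre-emergence (day 1) or post-emergence (about day 12). Evaluation: visual damage score from 0% (none) to 100% (total), 15 days after application post-emergence, 20 days pre-emergence.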

[2] = tested on: Alopecurus myosuroides (ALOMY); conditions: for pest or weed control at 250 g/ha: Alopecurus myosuroides
In short: as §1

[3] = tested on: Lolium perenne (LOLPE); conditions: for pest or weed control at 250 g/ha: Lolium perenne
In short: as §1

[4] = tested on: Avena fatua (AVEFA); conditions: for pest or weed control at 250 g/ha: Avena fatua
In short: as §1

[5] = post-emergence, 360 h, 250 g/ha, post-emergence, 15 DAA, visual assessment (100%=total damage, 0%=no damage), read-out: Post-emergence herbicidal activity (percentage phytotoxicity) ECHCG POST
[6] = pre-emergence, 480 h, 250 g/ha, pre-emergence, 20 DAA, visual assessment (100%=total damage, 0%=no damage), read-out: Pre-emergence herbicidal activity (percentage phytotoxicity) ECHCG PRE
[7] = post-emergence, 360 h, 250 g/ha, post-emergence, 15 DAA, visual assessment (100%=total damage, 0%=no damage), read-out: Post-emergence herbicidal activity (percentage phytotoxicity) ALOMY POST
[8] = pre-emergence, 480 h, 250 g/ha, pre-emergence, 20 DAA, visual assessment (100%=total damage, 0%=no damage), read-out: Pre-emergence herbicidal activity (percentage phytotoxicity) ALOMY PRE
[9] = post-emergence, 360 h, 250 g/ha, post-emergence, 15 DAA, visual assessment (100%=total damage, 0%=no damage), read-out: Post-emergence herbicidal activity (percentage phytotoxicity) LOLPE POST
[10] = pre-emergence, 480 h, 250 g/ha, pre-emergence, 20 DAA, visual assessment (100%=total damage, 0%=no damage), read-out: Pre-emergence herbicidal activity (percentage phytotoxicity) LOLPE PRE
[11] = post-emergence, 360 h, 250 g/ha, post-emergence, 15 DAA, visual assessment (100%=total damage, 0%=no damage), read-out: Post-emergence herbicidal activity (percentage phytotoxicity) AVEFA POST
[12] = pre-emergence, 480 h, 250 g/ha, pre-emergence, 20 DAA, visual assessment (100%=total damage, 0%=no damage), read-out: Pre-emergence herbicidal activity (percentage phytotoxicity) AVEFA PRE
[13] = Rate 250 g/ha, post-emergence, assessed visually 15 DAA, 100%=total damage, 0%=no damage
[14] = Rate 250 g/ha, pre-emergence, assessed visually 20 DAA, 100%=total damage, 0%=no damage
[15] = post-emergence, 360 h, Rate 250 g/ha, post-emergence, assessed visually 15 DAA, 100%=total damage, 0%=no damage, read-out: Post-emergence herbicidal activity (percentage phytotoxicity) ECHCG POST
[16] = pre-emergence, 480 h, Rate 250 g/ha, pre-emergence, assessed visually 20 DAA, 100%=total damage, 0%=no damage, read-out: Pre-emergence herbicidal activity (percentage phytotoxicity) ECHCG PRE
[17] = post-emergence, 360 h, Rate 250 g/ha, post-emergence, assessed visually 15 DAA, 100%=total damage, 0%=no damage, read-out: Post-emergence herbicidal activity (percentage phytotoxicity) ALOMY POST
[18] = pre-emergence, 480 h, Rate 250 g/ha, pre-emergence, assessed visually 20 DAA, 100%=total damage, 0%=no damage, read-out: Pre-emergence herbicidal activity (percentage phytotoxicity) ALOMY PRE
[19] = post-emergence, 360 h, Rate 250 g/ha, post-emergence, assessed visually 15 DAA, 100%=total damage, 0%=no damage, read-out: Post-emergence herbicidal activity (percentage phytotoxicity) LOLPE POST
[20] = pre-emergence, 480 h, Rate 250 g/ha, pre-emergence, assessed visually 20 DAA, 100%=total damage, 0%=no damage, read-out: Pre-emergence herbicidal activity (percentage phytotoxicity) LOLPE PRE
[21] = post-emergence, 360 h, Rate 250 g/ha, post-emergence, assessed visually 15 DAA, 100%=total damage, 0%=no damage, read-out: Post-emergence herbicidal activity (percentage phytotoxicity) AVEFA POST
[22] = pre-emergence, 480 h, Rate 250 g/ha, pre-emergence, assessed visually 20 DAA, 100%=total damage, 0%=no damage, read-out: Pre-emergence herbicidal activity (percentage phytotoxicity) AVEFA PRE

Row | Structure (SMILES) | pest or weed control at 250 g/ha [1, 5] [%] | pest or weed control at 250 g/ha [1, 6] [%] | pest or weed control at 250 g/ha [2, 7] [%] | pest or weed control at 250 g/ha [2, 8] [%] | pest or weed control at 250 g/ha [3, 9] [%] | pest or weed control at 250 g/ha [3, 10] [%] | pest or weed control at 250 g/ha [4, 11] [%] | pest or weed control at 250 g/ha [4, 12] [%] | also measured
1 | COc1cccc(CNC(=O)CC2CC(=O)C(c3c(C)cc(Br)cc3C)C2=O)c1 (stereo not shown) [Compound B132] | 80 | 20 | 60 | 80 | 70 | 80 | 20 | 30 | 
2 | Cc1cc(-n2cc(Cl)cn2)cc(C)c1C1C(=O)CC(CC(=O)NCc2cccc(Cl)c2)C1=O (stereo not shown) [Compound B262] |  |  |  |  |  |  |  |  | pest or weed control at 250 g/ha ([1]; post-emergence, 360 h, POST-emergence, rate 250 g/ha, visual score 15 DAA (100%=total damage, 0%=no damage), read-out: Post-emergence herbicidal activity (percentage phytotoxicity) ECHCG POST): 100%; pest or weed control at 250 g/ha ([1]; pre-emergence, 480 h, PRE-emergence, rate 250 g/ha, visual score 20 DAA (100%=total damage, 0%=no damage), read-out: Pre-emergence herbicidal activity (percentage phytotoxicity) ECHCG PRE): 80%; pest or weed control at 250 g/ha ([2]; post-emergence, 360 h, POST-emergence, rate 250 g/ha, visual score 15 DAA (100%=total damage, 0%=no damage), read-out: Post-emergence herbicidal activity (percentage phytotoxicity) ALOMY POST): 70%; pest or weed control at 250 g/ha ([2]; pre-emergence, 480 h, PRE-emergence, rate 250 g/ha, visual score 20 DAA (100%=total damage, 0%=no damage), read-out: Pre-emergence herbicidal activity (percentage phytotoxicity) ALOMY PRE): 60%; pest or weed control at 250 g/ha ([3]; post-emergence, 360 h, POST-emergence, rate 250 g/ha, visual score 15 DAA (100%=total damage, 0%=no damage), read-out: Post-emergence herbicidal activity (percentage phytotoxicity) LOLPE POST): 70%; pest or weed control at 250 g/ha ([3]; pre-emergence, 480 h, PRE-emergence, rate 250 g/ha, visual score 20 DAA (100%=total damage, 0%=no damage), read-out: Pre-emergence herbicidal activity (percentage phytotoxicity) LOLPE PRE): 60%; pest or weed control at 250 g/ha ([4]; post-emergence, 360 h, POST-emergence, rate 250 g/ha, visual score 15 DAA (100%=total damage, 0%=no damage), read-out: Post-emergence herbicidal activity (percentage phytotoxicity) AVEFA POST): 90%; pest or weed control at 250 g/ha ([4]; pre-emergence, 480 h, PRE-emergence, rate 250 g/ha, visual score 20 DAA (100%=total damage, 0%=no damage), read-out: Pre-emergence herbicidal activity (percentage phytotoxicity) AVEFA PRE): 40%
3 | COCC(C)NC(=O)CC1CC(=O)C(c2c(C)cc(-c3ncc(Cl)cn3)cc2C)C1=O (stereo not shown) [Compound B346] |  |  |  |  |  |  |  |  | pest or weed control at 250 g/ha ([1]; post-emergence, 360 h, Rate 250 g/ha, post-emergence, visual assessment 15 DAA, 100%=total damage, 0%=no damage, read-out: Post-emergence herbicidal activity (percentage phytotoxicity) ECHCG POST): 100%; pest or weed control at 250 g/ha ([1]; pre-emergence, 480 h, Rate 250 g/ha, pre-emergence, visual assessment 20 DAA, 100%=total damage, 0%=no damage, read-out: Pre-emergence herbicidal activity (percentage phytotoxicity) ECHCG PRE): 100%; pest or weed control at 250 g/ha ([2]; post-emergence, 360 h, Rate 250 g/ha, post-emergence, visual assessment 15 DAA, 100%=total damage, 0%=no damage, read-out: Post-emergence herbicidal activity (percentage phytotoxicity) ALOMY POST): 100%; pest or weed control at 250 g/ha ([2]; pre-emergence, 480 h, Rate 250 g/ha, pre-emergence, visual assessment 20 DAA, 100%=total damage, 0%=no damage, read-out: Pre-emergence herbicidal activity (percentage phytotoxicity) ALOMY PRE): 100%; pest or weed control at 250 g/ha ([3]; post-emergence, 360 h, Rate 250 g/ha, post-emergence, visual assessment 15 DAA, 100%=total damage, 0%=no damage, read-out: Post-emergence herbicidal activity (percentage phytotoxicity) LOLPE POST): 100%; pest or weed control at 250 g/ha ([3]; pre-emergence, 480 h, Rate 250 g/ha, pre-emergence, visual assessment 20 DAA, 100%=total damage, 0%=no damage, read-out: Pre-emergence herbicidal activity (percentage phytotoxicity) LOLPE PRE): 100%; pest or weed control at 250 g/ha ([4]; post-emergence, 360 h, Rate 250 g/ha, post-emergence, visual assessment 15 DAA, 100%=total damage, 0%=no damage, read-out: Post-emergence herbicidal activity (percentage phytotoxicity) AVEFA POST): 100%; pest or weed control at 250 g/ha ([4]; pre-emergence, 480 h, Rate 250 g/ha, pre-emergence, visual assessment 20 DAA, 100%=total damage, 0%=no damage, read-out: Pre-emergence herbicidal activity (percentage phytotoxicity) AVEFA PRE): 90%
4 | Cc1cc(-c2cnc(Cl)cn2)cc(C)c1C1C(=O)CC(CC(=O)NCc2cccc(C(F)(F)F)c2)C1=O (stereo not shown) [Compound A149] |  |  |  |  |  |  |  |  | Post-emergence herbicidal activity (percentage phytotoxicity) ECHCG POST [1, 13]: 100%; Pre-emergence herbicidal activity (percentage phytotoxicity) ECHCG PRE [1, 14]: 100%; Post-emergence herbicidal activity (percentage phytotoxicity) ALOMY POST [2, 13]: 100%; Pre-emergence herbicidal activity (percentage phytotoxicity) ALOMY PRE [2, 14]: 80%; Post-emergence herbicidal activity (percentage phytotoxicity) LOLPE POST [3, 13]: 100%; Pre-emergence herbicidal activity (percentage phytotoxicity) LOLPE PRE [3, 14]: 90%; Post-emergence herbicidal activity (percentage phytotoxicity) AVEFA POST [4, 13]: 100%; Pre-emergence herbicidal activity (percentage phytotoxicity) AVEFA PRE [4, 14]: 100%
5 | Cc1cc(C)c(C2C(=O)CC(CC(=O)NCC3(C)CC3(Cl)Cl)C2=O)c(C)c1 (stereo not shown) [Compound B82] | 50 | 90 | 70 | 70 | 70 | 80 | 60 | 40 | 
6 | Cc1cc(C)c(C2C(=O)CC(CC(=O)NC(C)C3CC3)C2=O)c(C)c1 (stereo not shown) [Compound B31] | 80 | 90 | 80 | 100 | 80 | 90 | 80 | 70 | 
7 | C#CC(C)(COC)NC(=O)CC1CC(=O)C(c2c(C)cc(C)cc2C)C1=O (stereo not shown) [Compound B55] | 60 | 50 | 80 | 80 | 70 | 70 | 60 | 30 | 
8 | Cc1cc(-c2ncc(F)cc2Cl)cc(C)c1C1C(=O)CC(CC(=O)NCc2cccs2)C1=O (stereo not shown) [Compound A150] |  |  |  |  |  |  |  |  | pest or weed control at 250 g/ha [1, 15]: 90%; pest or weed control at 250 g/ha [1, 16]: 90%; pest or weed control at 250 g/ha [2, 17]: 70%; pest or weed control at 250 g/ha [2, 18]: 70%; pest or weed control at 250 g/ha [3, 19]: 70%; pest or weed control at 250 g/ha [3, 20]: 80%; pest or weed control at 250 g/ha [4, 21]: 90%; pest or weed control at 250 g/ha [4, 22]: 50%
9 | Cc1cc(C)c(C2C(=O)CC(CC(=O)NCc3ccc(C(F)(F)F)cc3)C2=O)c(C)c1 (stereo not shown) [Compound B15] | 90 | 90 | 70 | 80 | 90 | 100 | 90 | 80 | 
10 | Cc1cc(C)c(C2C(=O)CC(CC(=O)NCC(F)(F)F)C2=O)c(C)c1 (stereo not shown) [Compound B59] | 80 | 90 | 70 | 70 | 80 | 90 | 70 | 30 | 
11 | CC#Cc1cc(C)c(C2C(=O)CC(CC(=O)NCCCC)C2=O)c(CC)c1 (stereo not shown) [Compound A51] |  |  |  |  |  |  |  |  | pest or weed control at 250 g/ha [1, 15]: 100%; pest or weed control at 250 g/ha [1, 16]: 100%; pest or weed control at 250 g/ha [2, 17]: 100%; pest or weed control at 250 g/ha [2, 18]: 100%; pest or weed control at 250 g/ha [3, 19]: 100%; pest or weed control at 250 g/ha [3, 20]: 100%; pest or weed control at 250 g/ha [4, 21]: 100%; pest or weed control at 250 g/ha [4, 22]: 100%

— patent US10206394B2, “Herbicidal compounds” (Syngenta Participations AG, priority 2014, dated 2019)
